{"source": "patent US10206889B2", "about": "“Emesis treatment” (Repurposed Therapeutics, Inc., priority 2009, dated 2019)", "key": {"[1]": {"molecular_target": "T1, 5-HT1A receptor (Human Ligand) (Homo sapiens, UniProt P08908)", "T1 sequence (P08908 1-422)": "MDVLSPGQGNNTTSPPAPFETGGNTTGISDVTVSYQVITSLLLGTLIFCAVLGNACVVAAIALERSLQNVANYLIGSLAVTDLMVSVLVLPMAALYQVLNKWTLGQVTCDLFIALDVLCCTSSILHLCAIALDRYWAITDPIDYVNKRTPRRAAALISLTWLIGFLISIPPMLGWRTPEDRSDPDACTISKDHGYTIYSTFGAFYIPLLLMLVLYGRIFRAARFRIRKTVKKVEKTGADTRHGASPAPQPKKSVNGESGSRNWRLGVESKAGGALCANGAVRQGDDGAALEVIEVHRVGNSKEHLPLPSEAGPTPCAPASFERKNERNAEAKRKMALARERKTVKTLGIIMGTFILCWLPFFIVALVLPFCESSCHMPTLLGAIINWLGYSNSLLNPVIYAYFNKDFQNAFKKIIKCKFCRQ", "test": "5-HT1A cellular function, antagonist", "type": "cell-based"}, "[2]": {"system": "xylazine-induced emesis in cats", "test": "Xylazine-induced emesis in cats, with vomit scale and defensive behavior (anxiety) scoring", "type": "in vivo, cats (female domestic short-haired felines)", "conditions": "for level of anxiety 15 minutes after treatment / protection against xylazine-induced emesis / cats vomited: FIG. 1, female cats; for protection against xylazine-induced emesis / cats vomited: fifteen minutes before 0.66 mg/kg xylazine SC, observed 30 minutes; for Defensive Behavior Scale / Mean Defensive Score / % Protection (vomiting) / Mean Latency (mean latency to retch/vomit): cats; for % Protection (vomiting) / Mean Latency (mean latency to retch/vomit): 20 minutes before xylazine 0.66 mg/kg; for anxiety-inducing effect in test subjects / effectiveness in preventing (chemically-induced) emesis: summary statement of the description, no dose given, test subjects", "procedure": "(i) 0.9% sodium chloride vehicle (n=6);\n[…], 0.66 mg/kg xylazine was administered subcutaneously, and the test subjects where then observed for 30 minutes.\nCats not susceptible to motion sickness were assigned to the xylazine testing group. Xylazine stimulates receptors on a pathway different from that used by motion sickness and thus served as a test of the generality of anti-emetic effects observed with motion testing.\nPrior to the evaluation of anti-emetic compounds, the production of an emetic response by xylazine in felines was confirmed in the laboratory. Cats were injected subcutaneously with either a freshly prepared solution of 0.66 mg/kg of xylazine in 0.9% sodium chloride or 0.9% sodium chloride vehicle, both adjusted to an injection volume of 0.1 ml/kg.\nOne week following the confirmation of an emetic response by the cats, subject cats were given either vehicle or test compound/composition in 0.9% sodium chloride or vehicle (injection volume of 0.1 ml/kg) subcutaneously, 20 minutes before administration of xylazine. […] Animals were scored using the vomit scale developed by Sufi et al., 1979. Additional experiments were separated by at least a 1 week washout period.\nA. Vomit Scale Scoring: • 1. Sal I (licking—parasympathetic): 1 pt • 2. Sal II (drool, thin/frothy—early sympathetic): 2 pts • 3. Sal III (stringy saliva, dangles—sympathetic): 4 pts • 4. Defection: 8 pts • 5. Urination: 8 pts • 6. Wretch/vomiting: 16 pts\nB. Defensive Behavior Scale: • 1. No defensiveness: normal behavior; • 2. Slight defensiveness: retreating to the rear of the cage when approached and/or growling when being carried; • 3. […] Strong defensiveness: vigorous clawing and biting to prevent being handled. V. Statistical Methods\nDose response curves were analyzed by Cochran's Q-test to establish significant effects. Paired comparisons were made using McNemar's test. Tests for line parallelism, relative potency and ED50 were based on least squares regression in a program for pharmacological statistics. The data from the nonparametric rating scale was analyzed using Friedman's analysis of variance model (ANOVA)."}, "[3]": {"molecular_target": "T2, rat ligand of the 5-HT1A receptor (Rattus norvegicus, UniProt P19327)", "T2 sequence (P19327 1-422)": "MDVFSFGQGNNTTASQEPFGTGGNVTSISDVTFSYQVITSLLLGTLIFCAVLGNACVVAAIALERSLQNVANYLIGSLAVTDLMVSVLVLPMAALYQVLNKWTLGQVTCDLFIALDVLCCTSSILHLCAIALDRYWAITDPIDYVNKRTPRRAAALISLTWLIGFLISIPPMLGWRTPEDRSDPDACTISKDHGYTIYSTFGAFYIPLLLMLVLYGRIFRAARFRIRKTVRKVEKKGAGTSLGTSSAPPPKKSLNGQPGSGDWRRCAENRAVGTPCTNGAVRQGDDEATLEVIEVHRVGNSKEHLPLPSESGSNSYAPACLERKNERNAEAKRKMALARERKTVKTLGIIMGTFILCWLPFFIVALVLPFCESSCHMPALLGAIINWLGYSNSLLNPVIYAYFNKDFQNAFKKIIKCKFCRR", "conditions": "Cornfield 1991, Hadrava 1996, Dabrowska 2006; cited from earlier work"}, "[4]": {"molecular_target": "T1, 5-HT1A receptor (Human Ligand)", "test": "5-HT1A cellular function, agonist", "type": "cell-based", "procedure": "The percent of control agonist response was recorded for several log concentrations of compounds/compositions."}}, "data": [{"smiles": "CCCN(CCC)C1CCc2cccc(O)c2C1", "note": "(racemic) [R/S-(+/−)-DPAT, (±)-8-Hydroxy-2-(dipropylamino)tetralin]", "values": [{"measurement": "Cellular Function Antagonist (IC50, nM)", "setting": "[1]", "result": "Inactive"}, {"measurement": "level of anxiety 15 minutes after treatment", "setting": "[2]; 0.16 mg/kg SC", "result": "moderate level of anxiety"}, {"measurement": "protection against xylazine-induced emesis", "setting": "[2]; 0.16 mg/kg SC", "result": 100, "unit": "%"}, {"measurement": "Defensive Behavior Scale", "setting": "[2]; dose 0.16 mg/kg SC", "result": "Moderate"}, {"measurement": "Mean Defensive Score", "setting": "[2]; dose 0.16 mg/kg SC", "result": 2.0}, {"measurement": "% Protection (vomiting)", "setting": "[2]; dose 0.16 mg/kg SC", "result": 100.00, "unit": "%"}, {"measurement": "Mean Latency (mean latency to retch/vomit)", "setting": "[2]; dose 0.16 mg/kg SC", "result": 0.0, "unit": "min"}]}, {"smiles": "CCCN(CCC)[C@@H]1CCc2cccc(O)c2C1", "note": "[R-(+)-DPAT, R(+)-8-hydroxy-2-(dipropylamino)tetralin]", "values": [{"measurement": "type of agonism at the 5-HT1A receptor (previous findings)", "setting": "[3]", "result": "full agonist"}, {"measurement": "Cellular Function Agonist: type of agonism", "setting": "[4]; listed as R(+)-8-OH-DPAT", "result": "Full Agonist"}, {"measurement": "Cellular Function Antagonist (IC50, nM)", "setting": "[1]", "result": "Inactive"}, {"measurement": "level of anxiety 15 minutes after treatment", "setting": "[2]; 0.08 mg/kg SC", "result": "extreme level of anxiety"}, {"measurement": "cats vomited", "setting": "[2]; 0.08 mg/kg SC", "result": "none of the cats vomited"}, {"measurement": "Defensive Behavior Scale", "setting": "[2]; dose 0.02 mg/kg SC", "result": "Moderate"}, {"measurement": "Mean Defensive Score", "setting": "[2]; dose 0.02 mg/kg SC", "result": 2.0}, {"measurement": "% Protection (vomiting)", "setting": "[2]; dose 0.02 mg/kg SC", "result": 100.00, "unit": "%"}, {"measurement": "Mean Latency (mean latency to retch/vomit)", "setting": "[2]; dose 0.02 mg/kg SC", "result": 0.00, "unit": "min"}, {"measurement": "Defensive Behavior Scale", "setting": "[2]; dose 0.04 mg/kg SC", "result": "Strong"}, {"measurement": "Mean Defensive Score", "setting": "[2]; dose 0.04 mg/kg SC", "result": 3.0}, {"measurement": "% Protection (vomiting)", "setting": "[2]; dose 0.04 mg/kg SC", "result": 100.00, "unit": "%"}, {"measurement": "Mean Latency (mean latency to retch/vomit)", "setting": "[2]; dose 0.04 mg/kg SC", "result": 0.00, "unit": "min"}, {"measurement": "Defensive Behavior Scale", "setting": "[2]; dose 0.08 mg/kg SC", "result": "Strong"}, {"measurement": "Mean Defensive Score", "setting": "[2]; dose 0.08 mg/kg SC", "result": 3.0}, {"measurement": "% Protection (vomiting)", "setting": "[2]; dose 0.08 mg/kg SC", "result": 100.00, "unit": "%"}, {"measurement": "Mean Latency (mean latency to retch/vomit)", "setting": "[2]; dose 0.08 mg/kg SC", "result": 0.00, "unit": "min"}, {"measurement": "anxiety-inducing effect in test subjects", "setting": "[2]", "result": "moderate to strong"}, {"measurement": "effectiveness in preventing (chemically-induced) emesis", "setting": "[2]", "result": 100, "unit": "%"}]}, {"smiles": "CCCN(CCC)[C@H]1CCc2cccc(O)c2C1", "note": "[S-(−)-DPAT, S(−)-8-hydroxy-2-(dipropylamino)tetralin]", "values": [{"measurement": "type of agonism at the 5-HT1A receptor (previous findings)", "setting": "[3]", "result": "partial agonist"}, {"measurement": "Cellular Function Agonist: type of agonism", "setting": "[4]; listed as S(−)-8-OH-DPAT", "result": "Full Agonist"}, {"measurement": "Cellular Function Antagonist (IC50, nM)", "setting": "[1]", "result": "Inactive"}, {"measurement": "level of anxiety 15 minutes after treatment", "setting": "[2]; 0.08 mg/kg SC", "result": "did not show any anxiety"}, {"measurement": "cats vomited", "setting": "[2]; 0.08 mg/kg SC", "result": 40, "unit": "%"}, {"measurement": "protection against xylazine-induced emesis", "setting": "[2]; 0.08 mg/kg SC", "result": 60, "unit": "%"}, {"measurement": "Defensive Behavior Scale", "setting": "[2]; dose 0.08 mg/kg SC", "result": "None"}, {"measurement": "Mean Defensive Score", "setting": "[2]; dose 0.08 mg/kg SC", "result": 0.0}, {"measurement": "% Protection (vomiting)", "setting": "[2]; dose 0.08 mg/kg SC", "result": 75.00, "unit": "%"}, {"measurement": "Mean Latency (mean latency to retch/vomit)", "setting": "[2]; dose 0.08 mg/kg SC", "result": 1.58, "unit": "min"}, {"measurement": "Defensive Behavior Scale", "setting": "[2]; dose 0.16 mg/kg SC", "result": "None"}, {"measurement": "Mean Defensive Score", "setting": "[2]; dose 0.16 mg/kg SC", "result": 0.0}, {"measurement": "% Protection (vomiting)", "setting": "[2]; dose 0.16 mg/kg SC", "result": 85.71, "unit": "%"}, {"measurement": "Mean Latency (mean latency to retch/vomit)", "setting": "[2]; dose 0.16 mg/kg SC", "result": 0.82, "unit": "min"}, {"measurement": "Defensive Behavior Scale", "setting": "[2]; dose 0.32 mg/kg SC", "result": "Slight"}, {"measurement": "Mean Defensive Score", "setting": "[2]; dose 0.32 mg/kg SC", "result": 1.0}, {"measurement": "% Protection (vomiting)", "setting": "[2]; dose 0.32 mg/kg SC", "result": 80.00, "unit": "%"}, {"measurement": "Mean Latency (mean latency to retch/vomit)", "setting": "[2]; dose 0.32 mg/kg SC", "result": 1.00, "unit": "min"}, {"measurement": "anxiety-inducing effect in test subjects", "setting": "[2]", "result": "no anxiety or only slight anxiety"}, {"measurement": "effectiveness in preventing (chemically-induced) emesis", "setting": "[2]", "result": "not fully effective"}]}]}
